Results reported in patent US20240336574A1 (LATIGO BIOTHERAPEUTICS, INC., priority 2021, published 2024).
Like-named read-outs stand apart in the source and are kept apart here.

Biological target: T1, recombinant human NaV1.8 stably transfected HEK cells (Homo sapiens, UniProt Q9Y5Y9)
T1 construct: expressed in transfected cells; host or cells: HEK cells, stably transfected
Experiment: Compound profiling on NaV1.8, human NaV1.8 cell line, SyncroPatch384PE automated patch clamp assay (Example 102, first set of compounds, Table 16)
Type: cell-based
Conditions: human NaV1.8 HEK cells, Table 16 (first set of compounds)
In short: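 IC50s come from two read-outs: resting-state block (P1, 10 mV step from −120 mV) and inactivated-state block (P2, after 10 s at −40 mV), scaled between DMSO and 250 μM tetracaine. Compounds (20–0.001 μM final, 1:3 steps) were applied for 5 min, 15 s sweeps. Cells kept at 30 °C the day before.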

[1] = inactivated state block (P2 measurement), read-out: P2IC50
[2] = resting state block (P1 measurement), read-out: P1IC50

T1 sequence (Q9Y5Y9 whole entry): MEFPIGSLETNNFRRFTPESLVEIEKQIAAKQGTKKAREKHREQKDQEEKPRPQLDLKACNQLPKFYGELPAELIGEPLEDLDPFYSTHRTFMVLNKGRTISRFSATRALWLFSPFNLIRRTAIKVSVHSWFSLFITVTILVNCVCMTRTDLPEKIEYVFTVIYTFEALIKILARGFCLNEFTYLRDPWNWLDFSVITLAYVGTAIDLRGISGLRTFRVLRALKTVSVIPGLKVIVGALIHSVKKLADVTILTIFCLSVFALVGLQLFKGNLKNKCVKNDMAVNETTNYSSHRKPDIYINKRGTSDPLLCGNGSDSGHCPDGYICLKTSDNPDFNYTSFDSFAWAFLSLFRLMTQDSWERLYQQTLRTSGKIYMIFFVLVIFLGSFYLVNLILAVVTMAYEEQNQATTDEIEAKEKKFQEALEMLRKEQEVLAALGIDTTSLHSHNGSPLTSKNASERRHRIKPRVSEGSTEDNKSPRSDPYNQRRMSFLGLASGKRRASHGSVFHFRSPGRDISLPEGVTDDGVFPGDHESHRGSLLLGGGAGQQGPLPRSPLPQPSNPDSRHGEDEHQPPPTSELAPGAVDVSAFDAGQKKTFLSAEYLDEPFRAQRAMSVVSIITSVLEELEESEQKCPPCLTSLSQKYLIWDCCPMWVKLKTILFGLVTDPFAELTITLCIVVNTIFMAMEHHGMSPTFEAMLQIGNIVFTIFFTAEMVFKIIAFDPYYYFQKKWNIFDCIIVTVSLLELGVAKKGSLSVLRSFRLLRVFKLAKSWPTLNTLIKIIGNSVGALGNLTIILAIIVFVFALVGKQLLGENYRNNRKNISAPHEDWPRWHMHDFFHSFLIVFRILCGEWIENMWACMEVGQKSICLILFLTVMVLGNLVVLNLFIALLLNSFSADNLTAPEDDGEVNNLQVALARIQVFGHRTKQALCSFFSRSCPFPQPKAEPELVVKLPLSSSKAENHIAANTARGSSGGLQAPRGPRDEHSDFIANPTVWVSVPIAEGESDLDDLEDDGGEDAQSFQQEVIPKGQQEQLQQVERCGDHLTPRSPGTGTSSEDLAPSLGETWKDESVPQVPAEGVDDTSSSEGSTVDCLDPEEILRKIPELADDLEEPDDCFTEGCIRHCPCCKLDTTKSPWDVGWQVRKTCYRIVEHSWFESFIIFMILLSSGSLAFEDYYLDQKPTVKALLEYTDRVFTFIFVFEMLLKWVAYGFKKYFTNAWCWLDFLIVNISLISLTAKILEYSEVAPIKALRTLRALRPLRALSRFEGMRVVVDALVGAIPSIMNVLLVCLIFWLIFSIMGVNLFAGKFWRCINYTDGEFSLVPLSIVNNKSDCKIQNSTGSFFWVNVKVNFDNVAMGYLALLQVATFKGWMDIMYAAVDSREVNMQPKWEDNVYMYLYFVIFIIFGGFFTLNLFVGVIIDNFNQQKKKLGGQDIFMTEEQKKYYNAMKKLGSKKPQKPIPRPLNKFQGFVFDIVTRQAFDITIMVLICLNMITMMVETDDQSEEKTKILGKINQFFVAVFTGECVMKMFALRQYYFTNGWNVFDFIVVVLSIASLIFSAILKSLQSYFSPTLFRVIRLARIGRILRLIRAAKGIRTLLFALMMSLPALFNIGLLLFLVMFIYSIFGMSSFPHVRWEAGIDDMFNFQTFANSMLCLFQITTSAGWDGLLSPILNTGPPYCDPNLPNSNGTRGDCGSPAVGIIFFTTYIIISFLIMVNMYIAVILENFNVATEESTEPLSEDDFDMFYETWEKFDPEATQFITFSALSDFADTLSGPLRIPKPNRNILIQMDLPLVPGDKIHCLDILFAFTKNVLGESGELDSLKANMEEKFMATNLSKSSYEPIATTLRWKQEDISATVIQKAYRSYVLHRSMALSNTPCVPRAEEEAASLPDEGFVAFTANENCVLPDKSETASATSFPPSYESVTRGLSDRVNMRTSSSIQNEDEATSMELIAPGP

| Compound | IC50 [1] [nM] | IC50 [2] [nM] |
| --- | --- | --- |
| Cc1c(C(F)(F)F)nnc(Oc2ccc(C(N)=O)cc2)c1C(=O)Nc1cccc(S(C)(=N)=O)c1 (stereo not shown) [Compound 1513, 3-(4-carbamoylphenoxy)-N-{3-[imino(methyl)oxo-λ^6-sulfanyl]phenyl}-5-methyl-6-(trifluoromethyl)pyridazine-4-carboxamide] | 200 to 500 | 200 to 500 |
| Cc1nc(OC2CCC2)ccc1Oc1nnc(C(F)(F)F)c(C)c1C(=O)Nc1cccc(S(C)(=N)=O)c1 (single isomer, unassigned) [Compound 1499, 3-((6-cyclobutoxy-2-methylpyridin-3-yl)oxy)-5-methyl-N-(3-(S-methylsulfonimidoyl)phenyl)-6-(trifluoromethyl)pyridazine-4-carboxamide] | 40 to 200 | 40 to 200 |
| COc1cc(C#N)ccc1Oc1nnc(C(F)(F)F)c(C)c1C(=O)Nc1cnc(C(N)=O)s1 [Compound 1538, 5-[[3-(4-cyano-2-methoxy-phenoxy)-5-methyl-6-(trifluoromethyl)pyridazine-4-carbonyl]amino]thiazole-2-carboxamide] | 40 to 200 | 40 to 200 |
| Cc1c(C(F)(F)F)nnc(Oc2c(F)cc(OC(F)(F)F)cc2F)c1C(=O)Nc1cccc(S(C)(=O)=O)c1 [Compound 1423] | 200 to 500 | 200 to 500 |
| COc1cc(C#N)ccc1Oc1nnc(-c2ccccc2)c(C)c1C(=O)Nc1cccc(S(C)(=N)=O)c1 (stereo not shown) [Compound 1436, 3-(4-cyano-2-methoxyphenoxy)-5-methyl-N-(3-(S-methylsulfonimidoyl)phenyl)-6-phenylpyridazine-4-carboxamide] | 40 to 200 | 20 to 40 |
| Cc1cccc(Cl)c1Oc1nnc(C(F)(F)F)c(C)c1C(=O)Nc1ccc(C(N)=O)cc1 [Compound 1401] | 200 to 500 | 200 to 500 |
| Cc1c(C(F)(F)F)nnc(Oc2ccc(OC(F)F)c(F)c2F)c1C(=O)Nc1cccc(S(C)(=N)=O)c1 (single isomer, unassigned) [Compound 1511, 3-[4-(difluoromethoxy)-2,3-difluorophenoxy]-N-{3-[imino(methyl)oxo-λ^6-sulfanyl]phenyl}-5-methyl-6-(trifluoromethyl)pyridazine-4-carboxamide] | ≤ 20 | ≤ 20 |
| COc1c(Oc2nnc(C(F)(F)F)c(C)c2C(=O)Nc2cccc(S(C)(=N)=O)c2)ccc(F)c1F (single isomer, unassigned) [Compound 1474, 3-(3,4-difluoro-2-methoxy-phenoxy)-5-methyl-N-[3-(methylsulfonimidoyl)phenyl]-6-(trifluoromethyl)pyridazine-4-carboxamide] |  | ≤ 20 |
| COc1cc(C#N)ccc1Oc1nnc(C(F)(F)F)c(C)c1C(=O)Nc1ccc[n+]([O-])c1 [Compound 1544, 3-(4-cyano-2-methoxy-phenoxy)-5-methyl-N-(1-oxidopyridin-1-ium-3-yl)-6-(trifluoromethyl)pyridazine-4-carboxamide] | 20 to 40 | 40 to 200 |
| CC(C)Oc1ccc(Oc2ncc(C(F)(F)F)cc2C(=O)Nc2ccc(C(N)=O)cc2)c(F)c1F [Compound 1711] | 20 to 40 | 20 to 40 |
| COc1ccc(Oc2nnc(C(F)(F)F)c(C)c2C(=O)Nc2cccc(S(C)(=O)=O)c2)c(C)n1 [Compound 1428] | 40 to 200 | 40 to 200 |
| Cc1c(Oc2nnc(C(F)(F)F)c(C)c2C(=O)Nc2cccc(S(C)(=N)=O)c2)ccc(Cl)c1F (single isomer, unassigned) [Compound 1487, 3-(4-chloro-3-fluoro-2-methyl-phenoxy)-5-methyl-N-[3-(methylsulfonimidoyl)phenyl]-6-(trifluoromethyl)pyridazine-4-carboxamide] | ≤ 20 | ≤ 20 |
| CC#Cc1nnc(Oc2ccc(F)cc2C)c(C(=O)Nc2cccc(S(C)(=N)=O)c2)c1C (stereo not shown) [Compound 1434, 3-(4-Fluoro-2-methylphenoxy)-5-methyl-N-(3-(S-methylsulfonimidoyl)phenyl)-6-(prop-1-yn-1-yl)pyridazine-4-carboxamide] | 200 to 500 | 200 to 500 |
| NC(=O)c1cccc(NC(=O)c2cc(C(F)(F)F)cnc2Oc2cnc(C(F)(F)F)nc2)c1 [Compound 1695] | 200 to 500 | 200 to 500 |
| NC(=O)c1cccc(NC(=O)c2cc(C(F)(F)F)cnc2OC2CC3C(C2)C3(F)F)c1 (stereo not shown) [Compound 1677] | 200 to 500 | 200 to 500 |
| CC(C)Oc1ccc(Oc2ncc(C(F)(F)F)cc2C(=O)Nc2ccc(C(N)=O)cc2)c(F)c1 [Compound 1710] | 200 to 500 | 200 to 500 |
| COc1ccc(-c2nnc(Oc3ccc(C#N)cc3OC)c(C(=O)Nc3cccc([S@](C)(=N)=O)c3)c2C)cn1 [Compound 1733, (R)-3-(4-cyano-2-methoxyphenoxy)-6-(6-methoxypyridin-3-yl)-5-methyl-N-(3-(S-methylsulfonimidoyl)phenyl)pyridazine-4-carboxamide] | 40 to 200 | 200 to 500 |
| CS(=N)(=O)c1cccc(NC(=O)c2cc(C(F)(F)F)cnc2Oc2ccc(OCc3ccccc3)cc2)c1 (stereo not shown) [Compound 1587] | 40 to 200 | 40 to 200 |
| Cc1ccc(Oc2ncc(C(F)(F)F)cc2C(=O)Nc2cccc(C(N)=O)c2)c(OC(F)F)n1 [Compound 1691] | 40 to 200 | 40 to 200 |
| Cc1c(C(F)(F)F)nnc(Oc2ccc(OC(F)(F)F)c(F)c2F)c1C(=O)Nc1cccc(S(C)(=N)=O)c1 (single isomer, unassigned) [Compound 1478, 3-[2,3-difluoro-4-(trifluoromethoxy)phenoxy]-5-methyl-N-[3-(methylsulfonimidoyl)phenyl]-6-(trifluoromethyl)pyridazine-4-carboxamide] |  | ≤ 20 |

| Compound | IC50 [1] [nM] | IC50 [2] [nM] |
| --- | --- | --- |
| COc1cc(Cl)ccc1Oc1nnc(C(F)(F)F)c(C)c1C(=O)Nc1cccc(S(C)(=N)=O)c1 (single isomer, unassigned) [Compound 1481, 3-(4-chloro-2-methoxyphenoxy)-5-methyl-N-(3-(S-methylsulfonimidoyl)phenyl)-6-(trifluoromethyl)pyridazine-4-carboxamide] | ≤ 20 | ≤ 20 |
| COc1cc(C#N)ccc1Oc1nnc(-c2ccccc2F)c(C)c1C(=O)Nc1cccc(S(C)(=N)=O)c1 (stereo not shown) [Compound 1452, 3-(4-cyano-2-methoxy-phenoxy)-6-(2-fluorophenyl)-5-methyl-N-[3-(methylsulfonimidoyl)phenyl]pyridazine-4-carboxamide] | 40 to 200 | 40 to 200 |
| CSc1cccc(NC(=O)c2cc(Br)cnc2Oc2ccc(F)cc2C)c1 [Compound 1577] | 200 to 500 | 200 to 500 |
| CS(=O)(=O)c1cccc(NC(=O)c2cc(C(F)(F)F)cnc2OCC(F)F)c1 [Compound 1663] | 200 to 500 | 200 to 500 |
| COc1cc(C#N)ccc1Oc1nnc(-c2cncs2)c(C)c1C(=O)Nc1cccc(S(C)(=N)=O)c1 (stereo not shown) [Compound 1460, 3-(4-cyano-2-methoxy-phenoxy)-5-methyl-N-[3-(methylsulfonimidoyl)phenyl]-6-thiazol-5-yl-pyridazine-4-carboxamide] | 200 to 500 | 200 to 500 |
| CS(=N)(=O)c1cccc(NC(=O)c2cc(C(F)(F)F)cnc2Oc2ccc(-n3ccnc3)cc2)c1 (stereo not shown) [Compound 1586] | 200 to 500 | 200 to 500 |
| CC(C)Oc1ccc(Oc2ncc(C(F)(F)F)cc2C(=O)Nc2cccc(C(N)=O)c2)c(F)c1F [Compound 1709] | 20 to 40 | ≤ 20 |
| Cn1cc(Oc2ncc(C(F)(F)F)cc2C(=O)Nc2cccc(S(C)(=O)=O)c2)cn1 [Compound 1610] | 200 to 500 | 200 to 500 |
| Cc1ccc(Oc2ncc(C(F)(F)F)cc2C(=O)Nc2cccc(S(C)(=N)=O)c2)c(OC(F)F)n1 (stereo not shown) [Compound 1690] | ≤ 20 | ≤ 20 |
| Cn1ccc2c(Oc3ncc(C(F)(F)F)cc3C(=O)Nc3cccc(S(C)(=O)=O)c3)cccc21 [Compound 1624] | 200 to 500 | 200 to 500 |
| Cc1cc(F)ccc1COc1ncc(C(F)(F)F)cc1C(=O)Nc1cccc(S(C)(=O)=O)c1 [Compound 1596] | 200 to 500 | 200 to 500 |
| COc1cc(C#N)ccc1Oc1ncc(Br)cc1C(=O)Nc1cccc(S(C)(=N)=O)c1 (stereo not shown) [Compound 1686] | ≤ 20 | ≤ 20 |
| CC(C)Oc1ccc(Oc2ncc(C(F)(F)F)cc2C(=O)Nc2cccc(S(C)(=N)=O)c2)cc1F (stereo not shown) [Compound 1647] | ≤ 20 | ≤ 20 |
| CC(=O)N=[S@](C)(=O)c1cccc(NC(=O)c2cc(C(F)(F)F)cnc2Oc2ccc(F)cc2C)c1 [Compound 1716, N-[3-(N-acetyl-S-methyl-sulfonimidoyl)phenyl]-2-(4-fluoro-2-methyl-phenoxy)-5-(trifluoromethyl)pyridine-3-carboxamide] | ≤ 20 | ≤ 20 |
| COc1cc(C#N)ccc1Oc1nnc(-c2nccs2)c(C)c1C(=O)Nc1cccc(S(C)(=N)=O)c1 (stereo not shown) [Compound 1463, 3-(4-cyano-2-methoxy-phenoxy)-5-methyl-N-[3-(methylsulfonimidoyl)phenyl]-6-thiazol-2-yl-pyridazine-4-carboxamide] | ≤ 20 | ≤ 20 |
| COc1cc(C#N)ccc1Oc1nnc(C(F)(F)F)c(C)c1C(=O)Nc1cccc(C(=O)NS(C)(=O)=O)c1 [Compound 1542, 3-(4-cyano-2-methoxy-phenoxy)-5-methyl-N-[3-(methylsulfonylcarbamoyl)phenyl]-6-(trifluoromethyl)pyridazine-4-carboxamide] | 200 to 500 | 200 to 500 |
| CS(=O)(=O)c1cccc(NC(=O)c2cc(C(F)(F)F)cnc2OCC2CC2)c1 [Compound 1602] | 200 to 500 | 200 to 500 |
| CC(C#N)Oc1cc(F)c(Oc2ncc(C(F)(F)F)cc2C(=O)Nc2cccc(S(C)(=N)=O)c2)cc1F (stereo not shown) [Compound 1689] | 40 to 200 | 40 to 200 |
| COc1nc(C#N)ccc1Oc1ncc(C(F)(F)F)cc1C(=O)Nc1cccc([S@](C)(=N)=O)c1 [Compound 1655] | ≤ 20 | ≤ 20 |
